Measurements as given in US7902252B2, “Inhibitors of D-amino acid oxidase” (Sepracor, Inc., priority 2007, dated 2011).

Assays:
Human DAAO = Human DAAO (Homo sapiens, UniProt P14920); experiment: D-Amino Acid Oxidase enzyme assay (D-serine, horseradish peroxidase/Amplex Red coupled fluorescence); format: biochemical; conditions: D-serine 5 mM, pH 7.4
In short: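 D-serine substrate at 5 mM (Km), 50 mM sodium phosphate pH 7.4; H2O2 output coupled via 4 U/mL horseradish peroxidase and 50 μM Amplex Red to resorufin fluorescence. Reaction started with enzyme; H2O2 control checked coupling interference; IC50 from inhibition curves.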

[1] = test system: D-serine levels in the cerebellum; experiment: In vivo elevation of D-serine levels in the cerebellum; parameters: species or system Mice (C57BL/6); conditions: mice, intraperitoneal;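 note: Cutoffs are cerebellum D-serine in nmol/g wet tissue weight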
Method: […] Animals are sacrificed at either 2 or 6 h post compound administration with an N=3 per time point. At sacrifice, trunk blood is collected into tubes containing potassium EDTA, which are then centrifuged to permit isolation of plasma. The cerebellum is dissected from each animal. Plasma and cerebellum samples are stored at −80° C. until samples are analyzed (LC/MS/MS).

Sequence of Human DAAO (P14920 whole entry): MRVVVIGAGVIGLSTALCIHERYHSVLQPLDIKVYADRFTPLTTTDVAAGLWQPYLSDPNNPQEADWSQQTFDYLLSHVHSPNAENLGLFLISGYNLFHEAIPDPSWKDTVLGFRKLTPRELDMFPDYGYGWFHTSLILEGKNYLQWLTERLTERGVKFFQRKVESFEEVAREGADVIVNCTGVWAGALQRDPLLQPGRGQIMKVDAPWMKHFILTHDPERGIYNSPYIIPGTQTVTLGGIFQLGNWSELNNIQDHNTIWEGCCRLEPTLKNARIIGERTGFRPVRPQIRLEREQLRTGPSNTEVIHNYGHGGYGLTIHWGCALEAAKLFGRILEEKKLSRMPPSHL

SMILES	IC50 (Human DAAO)	Cerebellum D-serine at 2 hours ([1]; dose 30 mg/kg)	Cerebellum D-serine at 2 hours ([1]; dose 60 mg/kg)	Cerebellum D-serine at 6 hours ([1]; dose 60 mg/kg)	Cerebellum D-serine at 6 hours ([1]; dose 30 mg/kg)
O=C(O)c1cc2c([nH]1)CCC2Cc1cccc(-c2ccco2)c1 (single isomer, unassigned) [Compound 89, 4-(3-(furan-2-yl)benzyl)-1,4,5,6-tetrahydrocyclopenta[b]pyrrole-2-carboxylic acid]	≤ 0.1 µM	(−) (<2.5 = (−))			
Cc1cccc(CC2CCc3[nH]c(C(=O)O)cc32)c1 (centres unmarked) [Compound 70, 4-(3-methylbenzyl)-1,4,5,6-tetrahydrocyclopenta[b]pyrrole-2-carboxylic acid]	≤ 0.1 µM		(+) (2.5-4.9 = (+))	(+) (2.5-4.9 = (+))	
O=C(O)c1cc2c([nH]1)CCC2Cc1ccc(Br)cc1 (single isomer, unassigned) [Compound 62, 4-(4-bromobenzyl)-1,4,5,6-tetrahydrocyclopenta[b]pyrrole-2-carboxylic acid]	≤ 0.1 µM	(+) (2.5-4.9 = (+))			(++) (>5 = (++))
O=C(O)c1cc2c([nH]1)CCC2Cc1ccc(F)cc1F (single isomer, unassigned) [Compound 47, 4-(2,4-difluorobenzyl)-1,4,5,6-tetrahydrocyclopenta[b]pyrrole-2-carboxylic acid]	≤ 0.1 µM	(++) (>5 = (++))			(+) (2.5-4.9 = (+))
O=C(O)c1cc2c([nH]1)CCC2Cc1ccc2ccccc2c1 (single isomer, unassigned) [Compound 80, 4-(naphthalen-2-ylmethyl)-1,4,5,6-tetrahydrocyclopenta[b]pyrrole-2-carboxylic acid]	≤ 0.1 µM	(+) (2.5-4.9 = (+))			(+) (2.5-4.9 = (+))
O=C(O)c1cc2c([nH]1)CCC2Cc1ccc(F)c(F)c1 (single isomer, unassigned) [Compound 44, 4-(3,4-difluorobenzyl)-1,4,5,6-tetrahydrocyclopenta[b]pyrrole-2-carboxylic acid]	≤ 0.1 µM	(+) (2.5-4.9 = (+))			(+) (2.5-4.9 = (+))
O=C(O)c1cc2c([nH]1)CCC2Cc1cccc(Br)c1 (single isomer, unassigned) [Compound 65, 4-(3-bromobenzyl)-1,4,5,6-tetrahydrocyclopenta[b]pyrrole-2-carboxylic acid]	≤ 100 µM	(++) (>5 = (++))			(+) (2.5-4.9 = (+))
O=C(O)c1cc2c([nH]1)CCC2Cc1ccc(F)c(Cl)c1 (single isomer, unassigned) [Compound 50, 4-(3-chloro-4-fluorobenzyl)-1,4,5,6-tetrahydrocyclopenta[b]pyrrole-2-carboxylic acid]		(++) (>5 = (++))			(+) (2.5-4.9 = (+))
O=C(O)c1cc2c([nH]1)CCC2Cc1ccc(F)cc1F (racemic) [Compound 45, 4-(2,4-difluorobenzyl)-1,4,5,6-tetrahydrocyclopenta[b]pyrrole-2-carboxylic acid]	≤ 0.1 µM				
O=C(O)c1cc2c([nH]1)CCC2Cc1cccc(Br)c1 (racemic) [Compound 63, 4-(3-bromobenzyl)-1,4,5,6-tetrahydrocyclopenta[b]pyrrole-2-carboxylic acid]	≤ 0.1 µM				
O=C(O)c1cc2c([nH]1)C(Cc1ccccc1)CC2 (centres unmarked) [Compound 26, 6-benzyl-1,4,5,6-tetrahydrocyclopenta[b]pyrrole-2-carboxylic acid]	≤ 0.1 µM				
O=C(O)c1cc2c([nH]1)CCC2Cc1ccc(Cl)cc1 (racemic) [Compound 14, 4-(4-chlorobenzyl)-1,4,5,6-tetrahydrocyclopenta[b]pyrrole-2-carboxylic acid]	≤ 0.1 µM				
O=C(O)c1cc2c([nH]1)C(=Cc1ccccc1)CC2 (mixture of isomers) [Compound 25, (E/Z)-6-benzylidene-1,4,5,6-tetrahydrocyclopenta[b]pyrrole-2-carboxylic acid]	≤ 100 µM				
O=C(O)c1cc2c([nH]1)C(=O)CC2 [Compound 24, 6-oxo-1,4,5,6-tetrahydro-cyclopenta[b]pyrrole-2-carboxylic acid]	≤ 1 µM				

Continued, in another order:

IC50 (Human DAAO)	SMILES	Cerebellum D-serine at 2 hours ([1]; dose 30 mg/kg)	Cerebellum D-serine at 2 hours ([1]; dose 60 mg/kg)	Cerebellum D-serine at 6 hours ([1]; dose 60 mg/kg)	Cerebellum D-serine at 6 hours ([1]; dose 30 mg/kg)
≤ 0.1 µM	O=C(O)c1cc2c([nH]1)C[C@@H]1C[C@H]21 (racemic) [Compound 138, ±(1aS,5aS)-1a,4,5,5a-tetrahydro-1H-4-aza-cyclopropa[α]pentalene-3-carboxylic acid]		(++) (>5 = (++))	(++) (>5 = (++))	
≤ 0.1 µM	O=C(O)c1cc2c([nH]1)CC1CC21 (single isomer, unassigned) [Compound 140, 1a,4,5,5a-tetrahydro-1H-4-aza-cyclopropa[α]pentalene-3-carboxylic acid]	(++) (>5 = (++))			(++) (>5 = (++))
≤ 0.1 µM	COc1cccc(CC2CCc3cc(C(=O)O)[nH]c32)c1 (single isomer, unassigned) [Compound 131, 6-(3-methoxybenzyl)-1,4,5,6-tetrahydrocyclopenta[b]pyrrole-2-carboxylic acid]	(+) (2.5-4.9 = (+))			(+) (2.5-4.9 = (+))
≤ 0.1 µM	O=C(O)c1cc2c([nH]1)[C@@H]1C[C@@H]1C2 [Compound 146, (1aR,5aR)-1a,2,5,5a-tetrahydro-1H-2-aza-cyclopropa[α]pentalene-3-carboxylic acid]		(++) (>5 = (++))	(++) (>5 = (++))	
≤ 1 µM	O=C(O)c1cc2c([nH]1)C(c1ccc(F)c(F)c1)CC2 (centres unmarked) [Compound 112, 6-(3,4-difluorophenyl)-1,4,5,6-tetrahydrocyclopenta[b]pyrrole-2-carboxylic acid]				
≤ 0.1 µM	O=C(O)c1cc2c([nH]1)C(Cc1cccc(O)c1)CC2 (centres unmarked) [Compound 128, 6-(3-hydroxybenzyl)-1,4,5,6-tetrahydrocyclopenta[b]pyrrole-2-carboxylic acid]				
≤ 0.1 µM	O=C(O)c1cc2c([nH]1)C(Cc1cccc(Cl)c1)CC2 (racemic) [Compound 121, 6-(3-chlorobenzyl)-1,4,5,6-tetrahydrocyclopenta[b]pyrrole-2-carboxylic acid]				
≤ 1 µM	O=C(O)c1cc2c([nH]1)CC1CC21 (single isomer, unassigned) [Compound 139, 1a,4,5,5a-tetrahydro-1H-4-aza-cyclopropa[α]pentalene-3-carboxylic acid]				
≤ 100 µM	O=C(O)c1cc2c([nH]1)CCC2c1ccc(-c2ccccc2)cc1 (centres unmarked) [Compound 106, 4-(biphenyl-4-yl)-1,4,5,6-tetrahydrocyclopenta[b]pyrrole-2-carboxylic acid]				
≤ 100 µM	O=C(O)c1[nH]c2c(c1Br)[C@H]1C[C@H]1C2 [Compound 145, (1aS,5aS)-1a,4,5,5a-tetrahydro-1H-2-bromo-4-aza-cyclopropa[α]pentalene-3-carboxylic acid]				
≤ 1 µM	O=C(O)c1cc2c([nH]1)C(CCCc1ccccc1)CC2 (single isomer, unassigned) [Compound 136, 6-(3-phenylpropyl)-1,4,5,6-tetrahydrocyclopenta[b]pyrrole-2-carboxylic acid]				
